The record followed here is ChEMBL document CHEMBL1201862, “PubChem BioAssay data set” (2004).

Molecules are shown by their SMILES.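 Five compound concentrations were applied to cells in 96-well plates for 48 hours; endpoints were derived by simple linear interpolation of the resulting dose-response curve. GI50 marks 50% less growth.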 Activity calls are given as the source filed them. Cut-off read from the data, not from the text of the source: active = GI50 up to about 1.1 µM and inactive = higher.

Test systems include COLO 205; RPMI-8226; KM12; SF-295; HL-60; A549; NCI-H226; Malme-3M; A498; HOP-62; TK-10; LOX IMVI; NCI-H460; SN12C; LXFL 529; HCT-15; HOP-92; MDA-MB-231; MDA-MB-435; NCI/ADR-RES.
What all share (test): inhibition of tumour cell growth, NCI panel, 48 h

Take `CCOC(=O)C1=C(Nc2ccc(Cl)c(Cl)c2)OC/C1=N\NS(=O)(=O)c1ccc(C)cc1`: the GI50 in the test with COLO 205 is > 100 µM (inactive); in the test on RPMI-8226, 21.6 µM (inactive); in the test with KM12, 39.5 µM (inactive); in the test on SF-295, > 100 µM (inactive); in the test on HL-60 it was 27.9 µM (inactive); in the test on A549, 52.2 µM (inactive). In addition, the GI50 in the test with NCI-H226 is 27.3 µM (inactive); in the test on Malme-3M, 67.8 µM (inactive); in the test on A498, 44.4 µM (inactive); in the test with HOP-62 it was 36.7 µM (inactive); in the test with TK-10 it was 42.5 µM (inactive); in the test on LOX IMVI it was 9.48 µM (inactive). For the same molecule, the GI50 with NCI-H460 is 34.3 µM (inactive); in the test on SN12C, 57.8 µM (inactive); in the test with LXFL 529 it was 46.9 µM (inactive).

In the case of `Cc1nc2ccccc2c(=O)n1/N=C(\N=N\c1cc(Cl)ccc1Cl)c1ccc(N(C)C)cc1`, the GI50 was 78.3 µM (inactive) in the test with COLO 205; over 100 µM in the test on HCT-15; 26.2 µM (inactive) with RPMI-8226; 22.9 µM (inactive) in the test on HL-60; > 100 µM (inactive) with A549; 60.4 µM (inactive) in the test with A498. Also, the GI50 in the test with HOP-62 was 26.9 µM (inactive); in the test with TK-10 it was 88.3 µM (inactive); with LOX IMVI, 63.4 µM (inactive); in the test on NCI-H460 it was 45.7 µM (inactive); with SN12C it was 58.6 µM (inactive); with LXFL 529, 29.9 µM (inactive).

Regarding `O=C(O)c1ccc(C2C(=O)N[C@@H]3CCC[C@H]23)cc1` (some centres undefined), the GI50 in the test with COLO 205 is > 100 µM (inactive); in the test on HCT-15 it was over 100 µM; with RPMI-8226 it was > 100 µM (inactive); in the test on KM12, > 100 µM (inactive); with SF-295 it was > 100 µM (inactive); with HL-60, > 100 µM (inactive). Further, the GI50 in the test with A549, with NCI-H226, with Malme-3M, in the test on A498, with HOP-62 and in the test on TK-10 was > 100 µM (inactive) in each case. Moreover, the GI50 in the test with LOX IMVI, in the test on NCI-H460 and in the test on LXFL 529 was > 100 µM (inactive) in each case.

Turning to `CCOC(=O)Cc1nc(/C(C#N)=C/c2ccco2)[nH]c(=O)c1C#N`, the GI50 is 33.5 µM (inactive) with COLO 205; over 100 µM with HCT-15; > 100 µM (inactive) in the test on HOP-92; > 100 µM (inactive) in the test on RPMI-8226; > 100 µM (inactive) in the test on KM12; 43.9 µM (inactive) with SF-295. Further, the GI50 was 95.3 µM (inactive) in the test on HL-60; > 100 µM (inactive) in the test with A549; > 100 µM (inactive) in the test on NCI-H226; > 100 µM (inactive) in the test with HOP-62; > 100 µM (inactive) in the test with TK-10; > 100 µM (inactive) with LOX IMVI. Further, the GI50 in the test on NCI-H460, in the test with SN12C and in the test on LXFL 529 was > 100 µM (inactive) in each case.

For the molecule `CCCN(CCC)c1c([N+](=O)[O-])cc(S(N)(=O)=O)cc1[N+](=O)[O-]` [ORYZALIN], the GI50 in the test with COLO 205 is 21.8 µM (inactive); in the test with HCT-15 it was 17.5 µM; in the test with RPMI-8226, 26.7 µM (inactive); with KM12 it was 17.8 µM (inactive); with SF-295 it was 16.7 µM (inactive); in the test on A549, 16.4 µM (inactive). Moreover, the GI50 was 23.7 µM (inactive) in the test on NCI-H226; 17.7 µM (inactive) with Malme-3M; 17.2 µM (inactive) in the test on HOP-62; 17.5 µM (inactive) with LOX IMVI; 14.6 µM (inactive) in the test with NCI-H460; 17.4 µM (inactive) in the test with SN12C. In addition, the GI50 with LXFL 529 was 16.1 µM (inactive).

Regarding `Clc1ccc2c(Cl)ncnc2c1I`, the GI50 is > 100 µM (inactive) in the test on COLO 205; over 100 µM in the test with HCT-15; 33.7 µM (inactive) with RPMI-8226; > 100 µM (inactive) in the test on KM12; > 100 µM (inactive) in the test with SF-295; 20.1 µM (inactive) with HL-60. Moreover, the GI50 was > 100 µM (inactive) in the test with A549; 32.4 µM (inactive) in the test with NCI-H226; > 100 µM (inactive) with Malme-3M; > 100 µM (inactive) in the test on HOP-62; > 100 µM (inactive) in the test on TK-10; > 100 µM (inactive) in the test with LOX IMVI. For the same molecule, the GI50 is > 100 µM (inactive) in the test on NCI-H460, > 100 µM (inactive) in the test with SN12C and 34 µM (inactive) in the test with LXFL 529.

On to `CCCCCCCCCC(=O)N[C@@H](c1ccco1)[C@@H](O)C(=O)O[C@H]1C[C@@]2(O)[C@@H](OC(=O)c3ccccc3)[C@@H]3[C@]4(OC(C)=O)CO[C@@H]4C[C@H](O)[C@@]3(C)C(=O)[C@H](OC(C)=O)C(=C1C)C2(C)C`, for which the GI50 in the test with COLO 205 is < 0.005 µM (active); with MDA-MB-231 it was 0.101 µM (active); in the test on HCT-15, 0.752 µM; with HOP-92 it was 0.0296 µM (active); in the test with RPMI-8226, < 0.005 µM (active); in the test on KM12 it was 0.00879 µM (active). Also, the GI50 with SF-295 was 0.0389 µM (active); with HL-60, 0.00966 µM (active); in the test with A549, 0.0318 µM (active); with NCI-H226, 0.0311 µM (active); in the test with Malme-3M, 0.0269 µM (active); with A498, 0.082 µM (active). Moreover, the GI50 in the test with HOP-62 is 0.0593 µM (active); in the test on MDA-MB-435, < 0.005 µM (active); in the test with TK-10, 0.468 µM (active); in the test on LOX IMVI, 0.0111 µM (active); with NCI-H460, 0.0118 µM (active); with NCI/ADR-RES, 4.57 µM (inactive). Also, in the test on SN12C, the GI50 was 0.0407 µM (active).

For the molecule `N#C/C(=C1C=C(Br)/C(=N\O)C=C\1Cl)c1cccc2ccccc12`, the GI50 in the test with COLO 205 was 2.29 µM (inactive); with MDA-MB-231 it was 4.32 µM (inactive); in the test with HCT-15, 4.73 µM; in the test on HOP-92 it was 8.57 µM (inactive); with RPMI-8226, 5.77 µM (inactive); with KM12, 3.92 µM (inactive). Moreover, the GI50 in the test with SF-295 was 3.12 µM (inactive); in the test on HL-60, 2.3 µM (inactive); in the test on A549 it was 9.84 µM (inactive); in the test on NCI-H226 it was 2.17 µM (inactive); with Malme-3M, 6.37 µM (inactive); with A498, 9.02 µM (inactive). Further, the GI50 in the test on HOP-62 is 10.3 µM (inactive); with MDA-MB-435, 2.62 µM (inactive); in the test with TK-10 it was 11.5 µM (inactive); in the test on LOX IMVI, 4.29 µM (inactive); in the test on NCI-H460, 5.16 µM (inactive); with NCI/ADR-RES, 4.01 µM (inactive). Also, in the test on SN12C, the GI50 was 8.49 µM (inactive).

As to `COc1ccc(/C=C/c2cc(=O)cc(/C=C/c3ccc(OC)c(O)c3)o2)cc1O`, the GI50 in the test with COLO 205 is 11.2 µM (inactive); with MDA-MB-231, 2.05 µM (inactive); in the test on HCT-15 it was 2.29 µM; in the test on HOP-92, 3.39 µM (inactive); in the test with RPMI-8226, 0.317 µM (active); in the test on KM12, 1.99 µM (inactive). Further, the GI50 in the test with SF-295 is 3.52 µM (inactive); with HL-60 it was 2 µM (inactive); in the test with A549 it was 3.14 µM (inactive); in the test on NCI-H226 it was 5.21 µM (inactive); in the test with Malme-3M, 2.16 µM (inactive); with A498, 3.53 µM (inactive). Moreover, the GI50 with HOP-62 is 3.41 µM (inactive); in the test on MDA-MB-435, 0.971 µM (active); in the test on TK-10, 4.26 µM (inactive); with LOX IMVI, 1.76 µM (inactive); with NCI-H460, 2.21 µM (inactive); in the test on NCI/ADR-RES, 2.89 µM (inactive). In the test with SN12C, the GI50 is 3.17 µM (inactive).

As to `c1csc(-c2ccc(-c3cccs3)c3nsnc23)c1`, the GI50 is 6.56 µM (inactive) with COLO 205; 22.4 µM (inactive) with MDA-MB-231; 0.261 µM with HCT-15; 35 µM (inactive) in the test on HOP-92; 12.2 µM (inactive) in the test on RPMI-8226; 0.327 µM (active) in the test with KM12. Also, the GI50 with SF-295 is 42.3 µM (inactive); with HL-60, 5.4 µM (inactive); with A549, 33.9 µM (inactive); with NCI-H226, > 33.5 µM (inactive); in the test on Malme-3M, > 39.1 µM (inactive); in the test with A498 it was > 100 µM (inactive). Besides, the GI50 is 35.6 µM (inactive) in the test on HOP-62; 31.4 µM (inactive) in the test with MDA-MB-435; 7.64 µM (inactive) with TK-10; 26.3 µM (inactive) in the test on LOX IMVI; 21.1 µM (inactive) with NCI-H460; > 49.5 µM (inactive) in the test with NCI/ADR-RES. The GI50 in the test on SN12C is > 60.3 µM (inactive).

As to `COC(=O)C(Cc1c[nH]c2ccccc12)NC(=O)c1ccc(-c2ccc(Cl)cc2Cl)o1` (centres undefined), the GI50 in the test with COLO 205 is 43.9 µM (inactive); in the test with MDA-MB-231 it was 15.5 µM (inactive); in the test with HCT-15 it was 52.7 µM; with HOP-92, 17.5 µM (inactive); in the test with RPMI-8226 it was 16 µM (inactive); in the test with KM12 it was 60 µM (inactive). The GI50 in the test on SF-295 is 40.5 µM (inactive); with HL-60, 10.5 µM (inactive); in the test with A549 it was 34.9 µM (inactive); in the test on NCI-H226, 91.4 µM (inactive); with Malme-3M, > 100 µM (inactive); with A498, 15.5 µM (inactive). The GI50 in the test with HOP-62 was 45.8 µM (inactive); in the test with MDA-MB-435 it was 56 µM (inactive); in the test with TK-10, 63.5 µM (inactive); with LOX IMVI, 53 µM (inactive); in the test with NCI-H460, 21.6 µM (inactive); in the test on NCI/ADR-RES, 77.8 µM (inactive). In the test with SN12C, the GI50 is 26.4 µM (inactive).

On to `O=[N+]([O-])c1cc(Cl)cc2c1nc(NCCO)c1ccccc12`, for which the GI50 in the test with COLO 205 was 0.0435 µM (active); in the test on MDA-MB-231 it was 21.1 µM (inactive); in the test with HCT-15, 4.36 µM; with HOP-92, 15.6 µM (inactive); in the test with RPMI-8226 it was 6.25 µM (inactive); with KM12, 9.53 µM (inactive). For the same molecule, the GI50 in the test with SF-295 is 13.1 µM (inactive); in the test with HL-60 it was 3.5 µM (inactive); in the test with A549 it was 2.95 µM (inactive); in the test with NCI-H226, 13.5 µM (inactive); with Malme-3M, 12.3 µM (inactive); in the test with A498, 10.3 µM (inactive). Also, the GI50 with HOP-62 was 7.24 µM (inactive); in the test on MDA-MB-435 it was 6.17 µM (inactive); in the test on TK-10, 10.8 µM (inactive); in the test with LOX IMVI it was 17.2 µM (inactive); in the test with NCI-H460, 2.58 µM (inactive); in the test on NCI/ADR-RES it was 23.5 µM (inactive). Further, the GI50 with SN12C is 6.17 µM (inactive).
